Results from US12263248B2, “Compounds and compositions for intracellular delivery of therapeutic agents” (ModernaTX, Inc., priority 2018, dated 2025).

How the values were obtained:
[1] = Apparent (surface) pKa of the LNP formulation (TNS assay); format: physicochemical; conditions: for pKa: Table 1A; for App. pKa: Table 3F
Summary of the method: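 Fluorescence of TNS probe added to LNP samples (mRNA 0.04 mg/mL) was read across 21 buffers of pH about 3-12, triplicate per pH. The inflection point of the sigmoidal fluorescence-vs-pH curve, […], gives apparent pKa; method validated in 1× PBS and Tris/sucrose buffer.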

[2] = Encapsulation efficiency of RNA (QUANT-IT RIBOGREEN RNA assay); format: physicochemical
Summary of the method: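 RiboGreen fluorescence (ex ~480, em ~520 nm) compared between intact samples and Triton X-100-lysed samples after 15 min at 37 °C in TE buffer, pH 7.5. Percent free RNA is the blank-corrected intact/disrupted ratio.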

[3] = tested on: hEPO mRNA; test: hEPO expression after intramuscular administration to mice; format: in vivo; conditions: Table 3I, hEPO
Protocol: The expression of hEPO and cytokine induction in mice intravenously administered a nanoparticle composition at a dose of 0.5 mpk were measured at 3, 6, and 24 hours. […] The expression of hEPO in mice intramuscularly administered a nanoparticle composition from Table 1B at a dose of 0.01 mpk were measured at 3, 6, and 24 hours.
(§1) Blood collection and analysis for hEPO. Blood was collected from mice or rats via the tail vein and hEPO concentrations were determined using a hEPO ELISA assay.

[4] = Particle size and polydispersity index of nanoparticle compositions (Zetasizer Nano ZS); format: physicochemical
Summary of the method: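 Values are size and PDI readings from a Zetasizer Nano ZS. Measurements are taken in 1×PBS; zeta potential, by contrast, uses 15 mM PBS.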

[5] = tested on: luciferase (Luc) mRNA; test: Luc expression (total flux) after intramuscular administration; format: in vivo, mice; conditions: for i.m. Lipid/MC3 0.01 mpk, Luc, 6 h: Table 3B; for Novel lipid/MC3 expression ratio, 6 hr. time point, i.m. Luc: intramuscular, relative to MC3 formulation
Summary of the method: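 Total-flux luciferase signal in mice after one intramuscular injection. Nanoparticle formulations contained modified Luc mRNA, either alone or co-dosed with H10 mRNA (e.g., 0.0005 or 0.005 mpk of each), giving 0.001 or 0.01 mpk.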

[6] = Residual lipid levels in rat liver and spleen (UPLC-MS); format: in vivo; conditions: Table 19B, liver, 24 h
Protocol: At 48 h liver tissue was harvested for lipid quantification. To pre-weighed tissues, Milli-Q water was added (900 μL water per 100 mg tissue). Tissues were homogenized using an Omni probe homogenizer until uniform. 50 μL of samples and matrix calibration standards were aliquoted into a 96-well plate. 50 μL of blank matrix for matrix blanks and control blanks were aliquoted. 400 μL is spiking solution were manually added to all samples except matrix blanks. 400 μL of 50:50 ACN:IPA were manually added to matrix blanks. The plate was covered and the samples vortexed and centrifuged for 5 minutes at >3000 rpm. 200 μL of the samples were transferred into a clean 96-well plate for analysis. Samples were analyzed on a Waters Acquity UPLC using a Higgins Analytical Clipeus C8 column ([…], 30×2.1 mm) and a gradient of either 70-95% or 60-95% (Mobile Phase A: 5 mM ammonium formate in 50:50:1 H2O:MeOH:formic acid; Mobile Phase B: 5 mM ammonium formate in 100:1 MeOH:formic acid) over 1.3 min at 1.2 mL/min (column temperature 55° C.). Detection was based on electrospray ionization (ESI) in positive mode using a Sciex API5500 Mass Spectrometer.
(§2) The expression of hEPO in rats intravenously administered a nanoparticle composition at a dose of 0.2 mpk or 2.0 mpk was measured at 6 hours. Table 16 summarize the ratio of hEPO expression levels using various nanoparticle compositions as compared to the hEPO expression level using MC3 formulation and the lipid levels in the liver measured 48 hours after administration, as described above. Tables 17 and 18 summarize the lipid levels in the liver and spleen measured 48 hours after administration of Compounds 28, 33, 53, and 54. Liver and spleen levels represent the average values calculated for 3 rats in each group. As is shown in Tables 17 and 18, less than 10% of Compounds 28, 33, 53, and 54 remained in the liver after 48 hours, while greater than 60% of MC3 remained.
(§3) 005781 The expression of hEPO and lipid levels in the liver and spleen in rats intravenously administered a nanoparticle composition at a dose of 0.2 mpk was measured at various time points. Compounds 18 and 25 were selected for comparison with MC3. Lipids were formulated according to the standard MC3 formulation described above. Rats were administered intravenously a single 0.2 mpk dose and expression monitored at 0.25, 0.5, 1, 2, 4, 8, 24, and 48 hours after administration.

[7] = Lipid clearance: lipid level in mouse liver tissue (LC-MS/MS); format: in vivo; conditions: Table 3E, mouse liver
[8] = tested on: hEPO mRNA; test: hEPO expression after intravenous administration to rats; format: in vivo, rat; conditions: Table 19B; for [hEPO]: species, dose and time not given
Protocol: The expression of hEPO and cytokine induction in rats intravenously administered a nanoparticle composition at a dose of 2.0 mpk was measured at 6 h.
as §2
The expression of hEPO induced by intravenous administration to rats of nanoparticle compositions at various doses was measured at 2, 4, 6, 8, 24, and 48 hour time points. FIGS. 3-6 respectively summarize the hEPO expression measured upon intravenous administration of formulations including Compounds 26, 18, 25, and MC3 to rat at various doses. The lipid levels of Compound 26 in the liver after 48 hours were about 19%.
as §3, §1

[9] = tested on: luciferase (Luc) mRNA; test: Luc expression, whole body bioluminescence after intravenous administration to mice; format: in vivo; conditions: Table 3E; intravenous
Summary of the method: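 Bioluminescence, read as region-of-interest total flux at 3, 6 and 24 h, followed a single 0.5 mg/kg intravenous dose of Luc mRNA-loaded nanoparticles in mice (n=6). Luciferin substrate (200 μL, 15 mg/mL in PBS) was injected intraperitoneally into CD-1 mice 15 minutes ahead of each imaging point.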

[10] = tested on: hEPO mRNA; test: hEPO expression after subcutaneous administration to mice; format: in vivo, female CD-1 mice; conditions: relative to MC3
Protocol: (§4) The effect of the lipids of the disclosure on protein expression upon subcutaneous administration was studied. Formulations containing lipids of the disclosure and an mRNA expressing luciferase or hEPO were administered subcutaneously to female CD-1 mice at 0.5 mpk. Expression levels were obtained via whole body luminescent imaging (BLI) at 3, 6 and 24 hours after injection and expression levels in liver, spleen and at the injection site were evaluated ex vivo after 24 hours. […] See also Tables 35 and 36, and FIGS. 19 and 27.
Table 36 summarizes the hEPO expression levels using various nanoparticle compositions of the disclosure as compared to the hEPO expression level using a formulation containing MC3 or Compound 18, following subcutaneous administration, as described above.

[11] = tested on: luciferase mRNA; test: Luciferase expression after subcutaneous administration to mice; format: in vivo, female CD-1 mice; conditions: 0.5 mpk, relative to MC3
Protocol: as §4
Table 35 summarizes the luciferase expression levels using various nanoparticle compositions of the disclosure, and the luciferase expression levels using various nanoparticle compositions of the disclosure as compared to the luciferase expression level using an MC3 formulation after subcutaneous administration, as described above.

[12] = Table 1A, lipid:DSPC:cholesterol:PEG-DMG 50:10:38.5:1.5 mol %
[13] = Table 1B, formulated with hEPO mRNA
[14] = Table 1D, for subcutaneous administration, # formulated with hEPO mRNA
[15] = Table 1E, compositions for subcutaneous administration

Row | pKa [1] | App. pKa [1] | EE (%) ([2]; Table 1A) | PDI ([4]; Table 1A) | Size (nm) [4, 12] [nm] | SMILES | Lipid/MC3 6 h timepoint [3] | Lipid/MC3 AUC [3] | i.m. Lipid/MC3 0.01 mpk, Luc, 6 h [5] | further results
1 | 6.31 | 6.60 | 96.7 | 0.18 | 96.0 | CCCCCCCCCOC(=O)CCCCCCCN(CCCCCCCC(=O)OC(CCCCCCCC)CCCCCCCC)CCCN/C(=C/[N+](=O)[O-])NC [Compound 170, Heptadecan-9-yl (E)-8-((3-((1-(methylamino)-2-nitrovinyl)amino)propyl)(8-(nonyloxy)-8-oxooctyl)amino)octanoate] | 5.9 | 5.7 | 5.3 | 
2 | 6.77. | 7.63 | 99.4 | 0.17 | 87.4 | CCCCCCCCCOC(=O)CCCCCCCN(CCCCCCCC(=O)OC(CCCCCCCC)CCCCCCCC)CCCNc1c(N(C)C)c(=O)c1=O [Compound 169, Heptadecan-9-yl 8-((3-((2-(dimethylamino)-3,4-dioxocyclobut-1-en-1-yl)amino)propyl)(8-(nonyloxy)-8-oxooctyl)amino)octanoate] | 4.6 | 4.7 | 3.3 | 
3 | 6.47 |  | 94.2 | 0.13 | 77.2 | CCCCCCCCC(CCCCCCCC)OC(=O)CCCCCCCN(CCO)CCCCCCCC(=O)OCC(C)CCCCCCC (centres unmarked) [Compound 184, Heptadecan-9-yl 8-((2-hydroxyethyl)(8-((2-methylnonyl)oxy)-8-oxooctyl)amino)octanoate] |  |  |  | % dose remaining, liver, 24 h [6]: 0.04%; % Remaining dose at 6 h ([7]; 6 h): 0.282%; % Remaining dose at 24 h ([7]; 24 h): 0%; EE (%) [2, 13]: 96.5%; AUC (hEPO) [8]: 1.41e+08 pg·h/mL; Lipid/MC3 ([hEPO] ratio) ([8]; relative to MC3): 7.13; Lipid/MC3 AUC ([8]; relative to MC3): 7.64; [hEPO] [8]: 1.05e+07 pg/mL; 6 h BLI Lipid/MC3 [9]: 7.46; PDI [4, 13]: 0.16; Size (nm) [4, 13]: 85.8 nm
4 |  |  |  |  |  | CCCCCCCCCOC(=O)CCCCCCCN(CCCCCCCC(=O)OC(CCCCCCCC)CCCCCCCC)CCCNC(=O)C(C)C [Compound 194, Heptadecan-9-yl 8-((3-isobutyramidopropyl)(8-(nonyloxy)-8-oxooctyl)amino)octanoate] | 5.5 | 6.2 |  | 
5 | 6.90 |  | 94.7 | 0.12 | 104.2 | CCCCCCCCCOC(=O)CCCCCCCN(CCCCCCCC(=O)OC(CCCCCCCC)CCCCCCCC)CCCNC(=O)COC [Compound 178, Heptadecan-9-yl 8-((3-(2-methoxyacetamido)propyl)(8-(nonyloxy)-8-oxooctyl)amino)octanoate] | 10.4 | 9.3 |  | Novel lipid/MC3 expression ratio, 6 hr. time point, i.m. Luc [5]: 7.14
6 |  |  | 97.65 | 0.15 | 76.2 | CCCCCCCCCOC(=O)CCCCCCCN(CCCCCCCC(=O)OC(CCCCCCCC)CCCCCCCC)CCCN/C(=N/[N+](=O)[O-])NC [Compound 200, Heptadecan-9-yl (E)-8-((3-(3-methyl-2-nitroguanidino)propyl)(8-(nonyloxy)-8-oxooctyl)amino)octanoate] | 2.6 | 2.7 |  | % dose remaining, liver, 24 h [6]: 0.36%; EE (%) [2, 13]: 97.3%; AUC (hEPO) [8]: 2.4e+07 pg·h/mL; Lipid/MC3 AUC ([8]; relative to MC3): 1.30; [hEPO] [8]: 1.72e+06 pg/mL; PDI [4, 13]: 0.19; Size (nm) [4, 13]: 95.3 nm; Novel lipid/MC3 expression ratio, 6 hr. time point, i.m. Luc [5]: 8.11
7 |  |  |  |  |  | CCCCCCCCCOC(=O)CCCCCCCN(CCCCCCCC(=O)OC(CCCCCCCC)CCCCCCCC)CCNC(C)=O [Compound 244, Heptadecan-9-yl 8-((2-acetamidoethyl)(8-(nonyloxy)-8-oxooctyl)amino)octanoate] | 0.4 | 0.4 |  | 
8 | 6.74 | 6.90 | 91.4 | 0.20 | 102.3 | CCCCCCCCCOC(=O)CCCCCCCN(CCCCCCCC(=O)OC(CCCCCCCC)CCCCCCCC)CCCN/C(=N/C#N)N(C)C [Compound 168, Heptadecan-9-yl (Z)-8-((3-(2-cyano-3,3-dimethylguanidino)propyl)(8-(nonyloxy)-8-oxooctyl)amino)octanoate] |  |  | 16.0 | % EE [2, 14]: 96.1%; % EE [2, 15]: 95%; Novel lipid/MC3 expression ratio, 6 hr. time point, s.c. hEPO 0.5 mpk [10]: 2.36; PDI [4, 14]: 0.07; Size (nm) [4, 14]: 87.4 nm; PDI [4, 15]: 0.08; Size (nm) [4, 15]: 85.0 nm; flux measured at 6 h relative to the MC3 formulation ([5]; intramuscular administration (i.m.), in words): sixteen; Novel lipid/MC3 expression ratio, 6 hr. time point, s.c. Luc 0.5 mpk [11]: 0.58
9 |  |  |  |  |  | CCCCCCCCCOC(=O)CCCCCCCN(CCCCCCCC(=O)OC(CCCCCCCC)CCCCCCCC)CCCNC(=N)N [Compound 207, Heptadecan-9-yl 8-((3-guanidinopropyl)(8-(nonyloxy)-8-oxooctyl)amino)octanoate] |  |  |  | % EE [2, 14]: 102%; Novel lipid/MC3 expression ratio, 6 hr. time point, s.c. hEPO 0.5 mpk [10]: 0; PDI [4, 14]: 0.22; Size (nm) [4, 14]: 81.4 nm
10 | 6.48 |  | 99.0 | 0.14 | 84.4 | CCCCCCCCCOC(=O)CCCCCCCN(CCCCCCCC(=O)OC(CCCCCCCC)CCCCCCCC)CCCNc1c(NC)c(=O)c1=O [Compound 182, Heptadecan-9-yl 8-((3-((2-(methylamino)-3,4-dioxocyclobut-1-en-1-yl)amino)propyl)(8-(nonyloxy)-8-oxooctyl)amino)octanoate] | 1.6 | 1.2 |  | 
